The IC50 is the concentration that gives 50% inhibition.

This passage reports ring closure, isolated yield and IC50 results from patent publication US20220144854A1, “MACROCYCLIC COMPOUNDS” (ZENO MANAGEMENT, INC., priority 2019, published 2022).

For data set [1] the following is noted: from COC(=O)c1c(CCCI)c2ccc(Cl)c(-c3c(CN(Cc4cc(CCc5cc(O)c6ccccc6c5)n(C)n4)C(=O)OC(C)(C)C)nn4c3CCC4)c2n1C; ether bond; 21-membered ring; K2CO3; MeCN; 3.61 mM; 60.0 °C.
The target of the next data set is Mcl-1 (Homo sapiens, UniProt Q07820). Description: Mcl-1 Homogeneous Time Resolved Fluorescence (HTRF) binding assay. As to conditions: HTRF; 4 nM Mcl-1, 100 nM FAM-Bak peptide; 10-dose, singlicate; read-out: Mcl-1 IC50.
The subject of data set [2] is NCI-H929 (ATCC CRL-9068) cells. Kind of data set: NCI-H929 cell proliferation assay (CellTiter-Glo). It counts as cell-based. As to conditions: 72 h of compound treatment.

Chain of Mcl-1 (Q07820 whole entry): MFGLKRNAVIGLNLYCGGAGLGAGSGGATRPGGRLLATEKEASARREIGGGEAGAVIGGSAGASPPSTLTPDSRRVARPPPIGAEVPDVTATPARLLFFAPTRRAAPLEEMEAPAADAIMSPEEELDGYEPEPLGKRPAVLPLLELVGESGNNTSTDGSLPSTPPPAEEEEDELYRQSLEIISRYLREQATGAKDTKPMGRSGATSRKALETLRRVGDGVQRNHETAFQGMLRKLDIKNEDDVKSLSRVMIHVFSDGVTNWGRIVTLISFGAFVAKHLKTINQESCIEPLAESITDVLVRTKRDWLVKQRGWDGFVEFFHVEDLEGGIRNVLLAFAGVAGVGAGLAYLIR

The compound `COC(=O)c1c2c3ccc(Cl)c(c3n1C)-c1c(nn3c1CCC3)CN(C(=O)OC(C)(C)C)Cc1cc(n(C)n1)CCc1cc(c3ccccc3c1)OCCC2` displayed a ring closure, isolated yield in data set [1] of 40%.
For `Cn1nc2cc1CSc1cc(c3ccccc3c1)OCCCc1c(C(=O)O)n(C)c3c(c(Cl)ccc13)-c1c(nn3c1CCCC3)CSC2` (single isomer, unassigned) [Example 2A, (Z)-1^6-Chloro-1^1,6^1-dimethyl-2^4,2^5,2^6,2^7-tetrahydro-1^1H,6^1H-10-oxa-4,8-dithia-2(3,2)-pyrazolo[1,5-a]pyridina-1(7,3)-indola-6(3,5)-pyrazola-9(3,1)-naphthalenacyclotridecaphane-1^2-carboxylic acid], the figures for the IC50 (on Mcl-1; in data set [2]) were less than 0.01 µM and less than 0.1 µM, respectively.
Take `Cc1[nH]nc2c1-c1c(Cl)ccc3c(c(C(=O)O)n(C)c13)CCCOc1cc(cc3ccccc13)SCc1cc(nn1C)CSC2` (single isomer, unassigned) [Example 6A, (Z)-1^6-Chloro-1^1,2^5,6^1-trimethyl-1^1H,2^1H,6^1H-10-oxa-4,8-dithia-1(7,3)-indola-2(4,3),6(3,5)-dipyrazola-9(3,1)-naphthalenacyclotridecaphane-1^2-carboxylic acid]: the IC50 on Mcl-1 was less than 0.01 µM; in data set [2] it was less than 0.1 µM.
In the case of `Cn1nc2cc1CSc1cc(c3ccccc3c1)OCCCc1c(C(=O)O)n(C)c3c(c(Cl)ccc13)-c1c(nn3c1CCC3)CSC2` (single isomer, unassigned) [Example 3A, (Z)-1^6-Chloro-1^1,6^1-dimethyl-2^5,2^6-dihydro-1^1H,2^4H,6^1H-10-oxa-4,8-dithia-1(7,3)-indola-2(3,2)-pyrrolo[1,2-b]pyrazola-6(3,5)-pyrazola-9(3,1)-naphthalenacyclotridecaphane-1^2-carboxylic acid], the IC50 at Mcl-1 is less than 0.01 µM; in data set [2] it was less than 0.1 µM.
